In ChEMBL document CHEMBL1201862, “PubChem BioAssay data set” (2004):
Calls of active or inactive are those of the source. For most assays here, no stated cut-off is given here; in the data, actives have a measured IC50 and inactives only a lower limit.

How the values were obtained:
[1] = target: T1, Insulin-degrading enzyme (Homo sapiens, UniProt P14735); assay: activators of recombinant IDE enzyme, dose response, counter-screen for IDE activator project, biochemical, fluorescence polarization (AID 588681)
T1 sequence (P14735 whole entry): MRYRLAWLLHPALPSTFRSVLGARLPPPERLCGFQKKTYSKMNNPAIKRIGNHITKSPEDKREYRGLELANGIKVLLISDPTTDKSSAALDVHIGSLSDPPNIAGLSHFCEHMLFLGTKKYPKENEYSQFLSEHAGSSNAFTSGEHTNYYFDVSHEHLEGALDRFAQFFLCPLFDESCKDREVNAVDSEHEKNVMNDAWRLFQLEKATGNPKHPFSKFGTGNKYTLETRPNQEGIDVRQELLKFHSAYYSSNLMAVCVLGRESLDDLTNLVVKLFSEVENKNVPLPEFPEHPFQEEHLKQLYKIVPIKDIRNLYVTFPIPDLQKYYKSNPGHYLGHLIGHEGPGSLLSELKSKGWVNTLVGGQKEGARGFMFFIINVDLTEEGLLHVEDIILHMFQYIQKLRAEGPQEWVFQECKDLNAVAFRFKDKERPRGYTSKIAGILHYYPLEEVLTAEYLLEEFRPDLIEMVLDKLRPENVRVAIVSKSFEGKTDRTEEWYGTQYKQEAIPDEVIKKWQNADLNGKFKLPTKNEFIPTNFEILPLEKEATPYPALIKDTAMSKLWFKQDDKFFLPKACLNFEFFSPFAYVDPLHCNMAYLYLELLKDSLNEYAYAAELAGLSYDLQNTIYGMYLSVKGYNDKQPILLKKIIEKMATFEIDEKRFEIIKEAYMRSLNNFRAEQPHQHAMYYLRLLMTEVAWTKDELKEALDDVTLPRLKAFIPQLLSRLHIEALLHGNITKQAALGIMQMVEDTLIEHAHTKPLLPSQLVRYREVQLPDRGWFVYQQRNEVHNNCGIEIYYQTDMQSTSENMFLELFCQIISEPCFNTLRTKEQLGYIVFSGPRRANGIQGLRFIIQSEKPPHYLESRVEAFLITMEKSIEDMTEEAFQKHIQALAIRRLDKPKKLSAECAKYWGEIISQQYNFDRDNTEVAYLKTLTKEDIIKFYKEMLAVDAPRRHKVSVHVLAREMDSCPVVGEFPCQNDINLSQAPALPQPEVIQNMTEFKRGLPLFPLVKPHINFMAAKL

[2] = system: HEK293; assay: optical interference in Abeta FP readout, dose response, artefact control for IDE activator project, biochemical, fluorescence polarization (AID 588442); assay type: functional, cell-based; details: Homo sapiens
[3] = system: HEK293; assay: HEK cell cytotoxicity by LDH release, dose response, cytotoxicity control for IDE activator project, fluorescence, HEK cells (AID 588440); assay type: functional, cell-based; details: Homo sapiens;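 further: cytotoxicity by LDH release measuring loss of membrane integrity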
[4] = target: T1, Insulin-degrading enzyme; assay: activators of endogenous IDE in HEK cells, dose response, cell-based, fluorescence polarization (AID 588439); assay type: functional
[5] = target: T2, Sentrin-specific protease 7 (Homo sapiens, UniProt Q9BQF6); assay: SENP7 protease inhibitors, SAR follow-up, biochemical, luminescence, set 2 (AID 588600); assay type: functional
T2 sequence (Q9BQF6 whole entry): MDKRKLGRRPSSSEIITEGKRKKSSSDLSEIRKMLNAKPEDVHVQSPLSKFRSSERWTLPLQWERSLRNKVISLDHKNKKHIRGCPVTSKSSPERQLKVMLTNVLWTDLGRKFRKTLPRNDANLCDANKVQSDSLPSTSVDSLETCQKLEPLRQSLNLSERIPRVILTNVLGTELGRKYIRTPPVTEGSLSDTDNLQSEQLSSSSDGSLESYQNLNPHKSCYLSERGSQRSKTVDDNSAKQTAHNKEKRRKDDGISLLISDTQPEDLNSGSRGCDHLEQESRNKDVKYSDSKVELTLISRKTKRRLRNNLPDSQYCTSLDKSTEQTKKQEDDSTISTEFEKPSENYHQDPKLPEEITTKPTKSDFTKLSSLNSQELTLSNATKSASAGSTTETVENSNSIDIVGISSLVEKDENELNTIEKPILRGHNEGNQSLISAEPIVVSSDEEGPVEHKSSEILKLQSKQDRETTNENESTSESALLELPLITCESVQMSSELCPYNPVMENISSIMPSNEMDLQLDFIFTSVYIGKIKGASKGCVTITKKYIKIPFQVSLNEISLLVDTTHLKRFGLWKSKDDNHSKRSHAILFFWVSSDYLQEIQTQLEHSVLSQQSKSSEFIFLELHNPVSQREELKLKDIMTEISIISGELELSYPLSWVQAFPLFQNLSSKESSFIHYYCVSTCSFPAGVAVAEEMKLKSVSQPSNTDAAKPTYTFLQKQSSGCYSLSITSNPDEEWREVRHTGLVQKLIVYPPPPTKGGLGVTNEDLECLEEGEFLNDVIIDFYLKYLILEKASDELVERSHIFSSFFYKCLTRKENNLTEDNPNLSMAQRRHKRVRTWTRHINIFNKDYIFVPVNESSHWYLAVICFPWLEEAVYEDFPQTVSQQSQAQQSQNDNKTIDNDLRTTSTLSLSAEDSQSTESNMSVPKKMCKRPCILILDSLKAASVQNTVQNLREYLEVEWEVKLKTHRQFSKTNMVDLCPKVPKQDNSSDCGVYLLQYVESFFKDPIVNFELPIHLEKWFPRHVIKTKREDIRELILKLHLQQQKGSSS

[6] = target: T3, Caspase-3 (Homo sapiens, UniProt P42574); assay: SAR Analysis of small molecule inhibitors of Sentrin-specific proteases (SENPs) using a Caspase-3 Selectivity assay. [Related pubchem assays (depositor defined):AID2540, AID2599, AID434973, AID489001]; assay type: functional
T3 sequence (P42574 whole entry): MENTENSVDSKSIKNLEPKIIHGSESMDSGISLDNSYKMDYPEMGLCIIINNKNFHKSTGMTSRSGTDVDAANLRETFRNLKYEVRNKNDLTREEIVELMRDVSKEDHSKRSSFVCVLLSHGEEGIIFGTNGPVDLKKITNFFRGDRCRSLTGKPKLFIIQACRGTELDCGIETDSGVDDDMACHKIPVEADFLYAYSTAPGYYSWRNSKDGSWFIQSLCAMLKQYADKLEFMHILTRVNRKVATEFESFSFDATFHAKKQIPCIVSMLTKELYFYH

[7] = target: T2, Sentrin-specific protease 7; assay: SENP7 protease inhibitors, SAR follow-up, biochemical, luminescence (AID 504497); assay type: functional
[8] = target: T3, Caspase-3; assay: caspase-3 inhibitors as off-family protease, SAR follow-up, selectivity assay for SENP protease inhibitor project, biochemical, luminescence, set 2 (AID 588599); assay type: functional
[9] = target: T4, Sentrin-specific protease 6 (Homo sapiens, UniProt Q9GZR1); assay: SAR Analysis of small molecule inhibitors of Sentrin-specific protease 6 (SENP6) using a Luminescent assay. [Related pubchem assays (depositor defined):AID2582, AID2599]; assay type: functional
T4 sequence (Q9GZR1 whole entry): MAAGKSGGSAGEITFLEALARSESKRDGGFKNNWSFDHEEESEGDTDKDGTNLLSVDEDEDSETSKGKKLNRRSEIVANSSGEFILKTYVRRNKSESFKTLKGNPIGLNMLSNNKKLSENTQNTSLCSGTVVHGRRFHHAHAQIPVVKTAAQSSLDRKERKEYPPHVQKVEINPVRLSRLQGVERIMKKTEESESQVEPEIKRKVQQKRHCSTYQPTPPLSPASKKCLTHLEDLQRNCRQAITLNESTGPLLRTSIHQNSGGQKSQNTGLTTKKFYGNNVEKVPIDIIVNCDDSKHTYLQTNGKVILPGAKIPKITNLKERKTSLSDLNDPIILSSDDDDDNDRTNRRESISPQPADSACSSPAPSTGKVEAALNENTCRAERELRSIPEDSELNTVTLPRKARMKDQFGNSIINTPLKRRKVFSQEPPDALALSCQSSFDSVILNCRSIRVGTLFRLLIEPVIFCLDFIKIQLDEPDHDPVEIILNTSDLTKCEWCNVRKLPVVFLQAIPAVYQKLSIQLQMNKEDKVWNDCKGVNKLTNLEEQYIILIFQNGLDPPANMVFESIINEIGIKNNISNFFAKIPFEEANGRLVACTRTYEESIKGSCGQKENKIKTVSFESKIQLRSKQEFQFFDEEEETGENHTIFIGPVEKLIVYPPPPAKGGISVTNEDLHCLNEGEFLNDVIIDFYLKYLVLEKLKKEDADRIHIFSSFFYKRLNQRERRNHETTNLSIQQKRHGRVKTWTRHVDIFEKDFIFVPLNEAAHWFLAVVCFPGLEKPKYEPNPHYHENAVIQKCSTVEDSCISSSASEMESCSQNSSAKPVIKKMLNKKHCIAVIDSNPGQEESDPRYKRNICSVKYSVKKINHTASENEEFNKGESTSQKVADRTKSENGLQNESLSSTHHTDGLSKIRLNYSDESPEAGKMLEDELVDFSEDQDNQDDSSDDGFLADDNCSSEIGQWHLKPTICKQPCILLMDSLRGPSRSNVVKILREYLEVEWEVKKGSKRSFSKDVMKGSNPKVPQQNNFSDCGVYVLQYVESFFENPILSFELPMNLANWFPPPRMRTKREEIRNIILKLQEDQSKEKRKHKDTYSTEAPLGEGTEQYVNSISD

[10] = target: T4, Sentrin-specific protease 6; assay: SENP6 protease inhibitors, SAR follow-up, biochemical, luminescence, set 2 (AID 588598); assay type: functional
[11] = target: T5, Sentrin-specific protease 8 (Homo sapiens, UniProt Q96LD8); assay: SENP8 protease inhibitors, SAR follow-up, biochemical, luminescence, set 2 (AID 588601); assay type: functional
T5 sequence (Q96LD8 whole entry): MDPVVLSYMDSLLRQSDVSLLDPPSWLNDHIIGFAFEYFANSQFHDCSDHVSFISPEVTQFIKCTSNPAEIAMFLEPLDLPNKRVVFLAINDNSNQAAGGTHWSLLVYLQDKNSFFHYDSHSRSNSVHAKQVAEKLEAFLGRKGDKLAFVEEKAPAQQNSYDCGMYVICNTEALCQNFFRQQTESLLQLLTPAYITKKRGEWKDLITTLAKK

[12] = target: T5, Sentrin-specific protease 8; assay: SENP8 protease inhibitors, SAR follow-up, biochemical, luminescence (AID 504501); assay type: functional

IC50 [5] | IC50 [6] | IC50 [7] | IC50 [8] | IC50 [9] | IC50 [10] | Compound | EC50 [1] | EC50 [2] | IC50 [3] | EC50 [4] | IC50 [11] | IC50 [12]
– | – | – | – | – | – | CC(C)CN1CCC(=O)N([C@H](CO)c2ccccc2)CC1 | > 54700 nM (inactive) | > 54700 nM (inactive) | > 89300 nM (inactive) | > 54700 nM (inactive) | – | –
1360 nM (active) | 1200 nM (active) | 1000 nM (active) | 1440 nM (active) | 1200 nM (active) | 1350 nM (active) | Oc1ccccc1-c1nc(/C=C/c2ccccc2Cl)no1 | – | – | – | – | 1290 nM (active) | 1200 nM (active)
